Reference: the NIST ThermoML archive (doi:10.1021/je100832h)
± gives the expanded uncertainty stated by the source.

Key:
[1] = excess molar enthalpy (molar enthalpy of mixing); xn = mol fraction of the nth substance listed; conditions: 101 kPa, Liquid, Calvet calorimetry
[2] = xn = mol fraction of the nth substance listed; conditions: 101.32 kPa, Liquid, Vibrating tube method

## CCCCCCCCCC [decane] + CCOC(C)=O
[1]; 291.15 K, x2 = 0.0986
  excess molar enthalpy: 0.146 ± 0.00311 kcal/mol
[1]; 291.15 K, x2 = 0.1909
  excess molar enthalpy: 0.246 ± 0.00526 kcal/mol
[1]; 291.15 K, x2 = 0.2646
  excess molar enthalpy: 0.318 ± 0.00669 kcal/mol
[1]; 291.15 K, x2 = 0.3377
  excess molar enthalpy: 0.372 ± 0.00789 kcal/mol
[1]; 291.15 K, x2 = 0.4032
  excess molar enthalpy: 0.404 ± 0.0086 kcal/mol
[1]; 291.15 K, x2 = 0.4608
  excess molar enthalpy: 0.422 ± 0.00908 kcal/mol
[1]; 291.15 K, x2 = 0.5067
  excess molar enthalpy: 0.429 ± 0.00908 kcal/mol
[1]; 291.15 K, x2 = 0.5523
  excess molar enthalpy: 0.433 ± 0.00932 kcal/mol
[1]; 291.15 K, x2 = 0.5924
  excess molar enthalpy: 0.428 ± 0.00908 kcal/mol
[1]; 291.15 K, x2 = 0.6147
  excess molar enthalpy: 0.421 ± 0.00908 kcal/mol
[1]; 291.15 K, x2 = 0.6541
  excess molar enthalpy: 0.409 ± 0.00884 kcal/mol
[1]; 291.15 K, x2 = 0.7009
  excess molar enthalpy: 0.389 ± 0.00837 kcal/mol
[1]; 291.15 K, x2 = 0.7512
  excess molar enthalpy: 0.357 ± 0.00765 kcal/mol
[1]; 291.15 K, x2 = 0.7956
  excess molar enthalpy: 0.317 ± 0.00669 kcal/mol
[1]; 291.15 K, x2 = 0.8448
  excess molar enthalpy: 0.268 ± 0.00574 kcal/mol
[1]; 291.15 K, x2 = 0.8927
  excess molar enthalpy: 0.208 ± 0.00454 kcal/mol
[1]; 291.15 K, x2 = 0.9375
  excess molar enthalpy: 0.14 ± 0.00311 kcal/mol
[1]; 291.15 K, x2 = 0.9684
  excess molar enthalpy: 0.0715 ± 0.00191 kcal/mol
[1]; 298.15 K, x2 = 0.0884
  excess molar enthalpy: 0.119 ± 0.00263 kcal/mol
[1]; 298.15 K, x2 = 0.177
  excess molar enthalpy: 0.216 ± 0.00454 kcal/mol
[1]; 298.15 K, x2 = 0.2587
  excess molar enthalpy: 0.289 ± 0.00621 kcal/mol
[1]; 298.15 K, x2 = 0.3362
  excess molar enthalpy: 0.345 ± 0.00741 kcal/mol
[1]; 298.15 K, x2 = 0.4005
  excess molar enthalpy: 0.377 ± 0.00813 kcal/mol
[1]; 298.15 K, x2 = 0.4566
  excess molar enthalpy: 0.398 ± 0.0086 kcal/mol
[1]; 298.15 K, x2 = 0.5101
  excess molar enthalpy: 0.408 ± 0.00884 kcal/mol
[1]; 298.15 K, x2 = 0.5578
  excess molar enthalpy: 0.408 ± 0.0086 kcal/mol
[1]; 298.15 K, x2 = 0.5984
  excess molar enthalpy: 0.402 ± 0.0086 kcal/mol
[1]; 298.15 K, x2 = 0.6297
  excess molar enthalpy: 0.395 ± 0.00837 kcal/mol
[1]; 298.15 K, x2 = 0.6727
  excess molar enthalpy: 0.381 ± 0.00813 kcal/mol
[1]; 298.15 K, x2 = 0.7191
  excess molar enthalpy: 0.357 ± 0.00765 kcal/mol
[1]; 298.15 K, x2 = 0.7636
  excess molar enthalpy: 0.329 ± 0.00693 kcal/mol
[1]; 298.15 K, x2 = 0.8098
  excess molar enthalpy: 0.289 ± 0.00621 kcal/mol
[1]; 298.15 K, x2 = 0.8591
  excess molar enthalpy: 0.24 ± 0.00526 kcal/mol
[1]; 298.15 K, x2 = 0.9024
  excess molar enthalpy: 0.185 ± 0.00406 kcal/mol
[1]; 298.15 K, x2 = 0.9385
  excess molar enthalpy: 0.124 ± 0.00287 kcal/mol
[1]; 298.15 K, x2 = 0.9744
  excess molar enthalpy: 0.0595 ± 0.00143 kcal/mol
[1]; 318.15 K, x2 = 0.0892
  excess molar enthalpy: 0.136 ± 0.00287 kcal/mol
[1]; 318.15 K, x2 = 0.172
  excess molar enthalpy: 0.226 ± 0.00478 kcal/mol
[1]; 318.15 K, x2 = 0.2474
  excess molar enthalpy: 0.3 ± 0.00645 kcal/mol
[1]; 318.15 K, x2 = 0.3208
  excess molar enthalpy: 0.354 ± 0.00765 kcal/mol
[1]; 318.15 K, x2 = 0.3848
  excess molar enthalpy: 0.388 ± 0.00837 kcal/mol
[1]; 318.15 K, x2 = 0.4412
  excess molar enthalpy: 0.409 ± 0.00884 kcal/mol
[1]; 318.15 K, x2 = 0.4941
  excess molar enthalpy: 0.42 ± 0.00884 kcal/mol
[1]; 318.15 K, x2 = 0.5409
  excess molar enthalpy: 0.421 ± 0.00908 kcal/mol
[1]; 318.15 K, x2 = 0.5801
  excess molar enthalpy: 0.417 ± 0.00884 kcal/mol
[1]; 318.15 K, x2 = 0.5985
  excess molar enthalpy: 0.412 ± 0.00884 kcal/mol
[1]; 318.15 K, x2 = 0.6567
  excess molar enthalpy: 0.391 ± 0.00837 kcal/mol
[1]; 318.15 K, x2 = 0.6942
  excess molar enthalpy: 0.374 ± 0.00789 kcal/mol
[1]; 318.15 K, x2 = 0.7429
  excess molar enthalpy: 0.344 ± 0.00741 kcal/mol
[1]; 318.15 K, x2 = 0.7959
  excess molar enthalpy: 0.303 ± 0.00645 kcal/mol
[1]; 318.15 K, x2 = 0.8499
  excess molar enthalpy: 0.249 ± 0.00526 kcal/mol
[1]; 318.15 K, x2 = 0.9018
  excess molar enthalpy: 0.179 ± 0.00382 kcal/mol
[1]; 318.15 K, x2 = 0.9554
  excess molar enthalpy: 0.0973 ± 0.00215 kcal/mol
[2]; 291.15 K, x2 = 0
  mass density: 731.22 ± 0.57 kg/m3
[2]; 291.15 K, x2 = 0.0174
  mass density: 732.37 ± 0.64 kg/m3
[2]; 291.15 K, x2 = 0.0789
  mass density: 736.87 ± 0.65 kg/m3
[2]; 291.15 K, x2 = 0.1457
  mass density: 742.14 ± 0.67 kg/m3
[2]; 291.15 K, x2 = 0.2494
  mass density: 751.47 ± 0.7 kg/m3
[2]; 291.15 K, x2 = 0.3508
  mass density: 762.27 ± 0.75 kg/m3
[2]; 291.15 K, x2 = 0.4382
  mass density: 773.02 ± 0.8 kg/m3
[2]; 291.15 K, x2 = 0.5149
  mass density: 783.83 ± 0.85 kg/m3
[2]; 291.15 K, x2 = 0.5781
  mass density: 793.79 ± 0.91 kg/m3
[2]; 291.15 K, x2 = 0.6446
  mass density: 805.51 ± 0.98 kg/m3
[2]; 291.15 K, x2 = 0.7051
  mass density: 817.52 ± 1.1 kg/m3
[2]; 291.15 K, x2 = 0.7648
  mass density: 830.7 ± 1.1 kg/m3
[2]; 291.15 K, x2 = 0.8069
  mass density: 841.06 ± 1.2 kg/m3
[2]; 291.15 K, x2 = 0.8553
  mass density: 854.05 ± 1.3 kg/m3
[2]; 291.15 K, x2 = 0.8914
  mass density: 864.68 ± 1.4 kg/m3
[2]; 291.15 K, x2 = 0.9318
  mass density: 877.69 ± 1.5 kg/m3
[2]; 291.15 K, x2 = 0.9794
  mass density: 894.7 ± 1.6 kg/m3
[2]; 298.15 K, x2 = 0
  mass density: 726.2 ± 0.56 kg/m3
[2]; 298.15 K, x2 = 0.0319
  mass density: 728.3 ± 0.64 kg/m3
[2]; 298.15 K, x2 = 0.1165
  mass density: 734.6 ± 0.65 kg/m3
[2]; 298.15 K, x2 = 0.2048
  mass density: 741.9 ± 0.67 kg/m3
[2]; 298.15 K, x2 = 0.2835
  mass density: 749.3 ± 0.71 kg/m3
[2]; 298.15 K, x2 = 0.3475
  mass density: 756.1 ± 0.74 kg/m3
[2]; 298.15 K, x2 = 0.4252
  mass density: 765.35 ± 0.78 kg/m3
[2]; 298.15 K, x2 = 0.4873
  mass density: 773.59 ± 0.82 kg/m3
[2]; 298.15 K, x2 = 0.5417
  mass density: 781.58 ± 0.87 kg/m3
[2]; 298.15 K, x2 = 0.6031
  mass density: 791.53 ± 0.92 kg/m3
[2]; 298.15 K, x2 = 0.6469
  mass density: 799.34 ± 0.98 kg/m3
[2]; 298.15 K, x2 = 0.6957
  mass density: 808.8 ± 1 kg/m3
[2]; 298.15 K, x2 = 0.7407
  mass density: 818.3 ± 1.1 kg/m3
[2]; 298.15 K, x2 = 0.78
  mass density: 827.2 ± 1.1 kg/m3
[2]; 298.15 K, x2 = 0.8179
  mass density: 836.5 ± 1.2 kg/m3
[2]; 298.15 K, x2 = 0.8516
  mass density: 845.4 ± 1.3 kg/m3
[2]; 298.15 K, x2 = 0.8865
  mass density: 855.4 ± 1.4 kg/m3
[2]; 298.15 K, x2 = 0.9207
  mass density: 866.1 ± 1.5 kg/m3
[2]; 298.15 K, x2 = 0.9604
  mass density: 879.5 ± 1.6 kg/m3
[2]; 318.15 K, x2 = 0
  mass density: 710.9 ± 0.55 kg/m3
[2]; 318.15 K, x2 = 0.0117
  mass density: 711.52 ± 0.59 kg/m3
[2]; 318.15 K, x2 = 0.0758
  mass density: 715.68 ± 0.62 kg/m3
[2]; 318.15 K, x2 = 0.1539
  mass density: 721.34 ± 0.64 kg/m3
[2]; 318.15 K, x2 = 0.2456
  mass density: 728.94 ± 0.66 kg/m3
[2]; 318.15 K, x2 = 0.2848
  mass density: 732.56 ± 0.69 kg/m3
[2]; 318.15 K, x2 = 0.3468
  mass density: 738.71 ± 0.7 kg/m3
[2]; 318.15 K, x2 = 0.3714
  mass density: 741.31 ± 0.73 kg/m3
[2]; 318.15 K, x2 = 0.4391
  mass density: 749.04 ± 0.76 kg/m3
[2]; 318.15 K, x2 = 0.516
  mass density: 758.96 ± 0.78 kg/m3
[2]; 318.15 K, x2 = 0.5314
  mass density: 761.13 ± 0.84 kg/m3
[2]; 318.15 K, x2 = 0.5878
  mass density: 769.54 ± 0.87 kg/m3
[2]; 318.15 K, x2 = 0.6448
  mass density: 778.92 ± 0.92 kg/m3
[2]; 318.15 K, x2 = 0.694
  mass density: 787.77 ± 0.96 kg/m3
[2]; 318.15 K, x2 = 0.7127
  mass density: 791.38 ± 1 kg/m3
[2]; 318.15 K, x2 = 0.7829
  mass density: 806.2 ± 1.1 kg/m3
[2]; 318.15 K, x2 = 0.8204
  mass density: 815 ± 1.2 kg/m3
[2]; 318.15 K, x2 = 0.8538
  mass density: 823.5 ± 1.2 kg/m3
[2]; 318.15 K, x2 = 0.8886
  mass density: 833 ± 1.3 kg/m3
[2]; 318.15 K, x2 = 0.9198
  mass density: 842.3 ± 1.4 kg/m3
[2]; 318.15 K, x2 = 0.9553
  mass density: 853.8 ± 1.5 kg/m3
[2]; 328.15 K, x2 = 0
  mass density: 703.34 ± 0.55 kg/m3
[2]; 328.15 K, x2 = 0.0347
  mass density: 705.37 ± 0.61 kg/m3
[2]; 328.15 K, x2 = 0.1351
  mass density: 711.99 ± 0.62 kg/m3
[2]; 328.15 K, x2 = 0.234
  mass density: 719.58 ± 0.65 kg/m3
[2]; 328.15 K, x2 = 0.3322
  mass density: 728.47 ± 0.69 kg/m3
[2]; 328.15 K, x2 = 0.4166
  mass density: 737.37 ± 0.73 kg/m3
[2]; 328.15 K, x2 = 0.4853
  mass density: 745.64 ± 0.77 kg/m3
[2]; 328.15 K, x2 = 0.5551
  mass density: 755.09 ± 0.82 kg/m3
[2]; 328.15 K, x2 = 0.6186
  mass density: 764.72 ± 0.87 kg/m3
[2]; 328.15 K, x2 = 0.6774
  mass density: 774.65 ± 0.93 kg/m3
[2]; 328.15 K, x2 = 0.7271
  mass density: 783.92 ± 0.99 kg/m3
[2]; 328.15 K, x2 = 0.7735
  mass density: 793.4 ± 1.1 kg/m3
[2]; 328.15 K, x2 = 0.8619
  mass density: 814.12 ± 1.2 kg/m3
[2]; 328.15 K, x2 = 0.9041
  mass density: 825.66 ± 1.3 kg/m3
[2]; 328.15 K, x2 = 0.9511
  mass density: 840.13 ± 1.5 kg/m3
